Measured values taken from patent US4316010A, “Cis-C3 "C4 "-carbonate derivatives of O-demethyloleandomycin and intermediates therefor” (Pfizer Inc., priority 1981, dated 1982).
≈ marks a conversion by molar mass, not a printed value.

Experiments:
Strep. faec. 6 = assay: MIC, serial dilution on BHI agar (inocula replicating device); type: cell-based; details: 18 hrs. at 37° C., read-out: Minimum Inhibitory Concentration (MIC)
Protocol: (§1) The procedure which is followed is the one recommended by the International Collaborative Study on Antibiotic Sensitivity Testing [Ericcson and Sherris, Acta. Pathologica et Microbiologia Scandinav, Supp. 217, Sections A and B: 64-68 (1971)], and employs brain heart infusion (BHI) agar and the inocula replicating device. Overnight growth tubes are diluted 100 fold for use as the standard inoculum (20,000-10,000 cells in approximately 0.002 ml. are placed on the agar surface; 20 ml. of BHI agar/dish). Twelve 2 fold dilutions of the test compound are employed, with initial concentration of the test drug being 200 mcg./ml. Single colonies are disregarded when reading plates after 18 hrs. at 37° C. The susceptibility (MIC) of the test organism is accepted as the lowest concentration of compound capable of producing complete inhibition of growth as judged by the naked eye. A comparison of the activity of 3"-epioleandomycin-Y 3",4"-carbonate and 4"-epioleandomycin-Y 3",4"-carbonate with that of parent oleandomycin-Y is recorded in the Table.

Staph. aur. 52 = assay: as above; type: cell-based; details: 18 hrs. at 37° C., read-out: Minimum Inhibitory Concentration (MIC)
Protocol: as §1

Staph. aur. 400 = assay: as above; type: cell-based; details: 18 hrs. at 37° C., read-out: Minimum Inhibitory Concentration (MIC)
Protocol: as §1

Strep. pneum. 2 = assay: as above; type: cell-based; details: 18 hrs. at 37° C., read-out: Minimum Inhibitory Concentration (MIC)
Protocol: as §1

Bac. sub. 1 = assay: as above; type: cell-based; details: 18 hrs. at 37° C., read-out: Minimum Inhibitory Concentration (MIC)
Protocol: as §1

Staph. aur. 5 = assay: as above; type: cell-based; details: 18 hrs. at 37° C., read-out: Minimum Inhibitory Concentration (MIC)
Protocol: as §1

Strep. pyog. 203 = assay: as above; type: cell-based; details: 18 hrs. at 37° C., read-out: Minimum Inhibitory Concentration (MIC)
Protocol: as §1

Staph. epi. 111 = assay: as above; type: cell-based; details: 18 hrs. at 37° C., read-out: Minimum Inhibitory Concentration (MIC)
Protocol: as §1

bacteria = details: background statement on the byproduct; cited from earlier work
Past. mult. = assay: MIC, serial dilution on BHI agar (inocula replicating device); type: cell-based; details: 18 hrs. at 37° C., read-out: Minimum Inhibitory Concentration (MIC)
Protocol: as §1

| MIC (Strep. faec. 6) | MIC (Staph. aur. 52) | MIC (Staph. aur. 400) | MIC (Strep. pneum. 2) | MIC (Bac. sub. 1) | MIC (Staph. aur. 5) | MIC (Strep. pyog. 203) | MIC (Staph. epi. 111) | MIC (Past. mult.) | SMILES | antibacterial activity (in words) (bacteria) |
| --- | --- | --- | --- | --- | --- | --- | --- | --- | --- | --- |
| 3.12 µg/mL (≈ 4.46 µM) | 3.12 µg/mL (≈ 4.46 µM) | 6.25 µg/mL (≈ 8.93 µM) | 0.39 µg/mL (≈ 0.557 µM) | 0.78 µg/mL (≈ 1.11 µM) | 3.12 µg/mL (≈ 4.46 µM) | 3.12 µg/mL (≈ 4.46 µM) | 1.56 µg/mL (≈ 2.23 µM) | 50 µg/mL (≈ 71.4 µM) | C[C@@H]1[C@@H](O[C@@H]2O[C@H](C)C[C@H](N(C)C)[C@H]2O)[C@@H](C)C[C@@]2(CO2)C(=O)[C@H](C)[C@@H](O)[C@@H](C)[C@@H](C)OC(=O)[C@H](C)[C@H]1O[C@H]1C[C@H]2OC(=O)O[C@H]2[C@H](C)O1 [IIa, 3"-epioleandomycin-Y 3",4"-carbonate] | – |
| 12.5 µg/mL (≈ 17.9 µM) | 12.5 µg/mL (≈ 17.9 µM) | 12.5 µg/mL (≈ 17.9 µM) | 0.78 µg/mL (≈ 1.11 µM) | 3.12 µg/mL (≈ 4.46 µM) | 12.5 µg/mL (≈ 17.9 µM) | 3.12 µg/mL (≈ 4.46 µM) | 6.25 µg/mL (≈ 8.93 µM) | – | C[C@@H]1[C@@H](O[C@@H]2O[C@H](C)C[C@H](N(C)C)[C@H]2O)[C@@H](C)C[C@@]2(CO2)C(=O)[C@H](C)[C@@H](O)[C@@H](C)[C@@H](C)OC(=O)[C@H](C)[C@H]1O[C@H]1C[C@@H]2OC(=O)O[C@@H]2[C@H](C)O1 [IIb, 4"-epioleandomycin-Y 3",4"-carbonate] | – |

| SMILES | MIC (Strep. faec. 6) | MIC (Staph. aur. 52) | MIC (Staph. aur. 400) | MIC (Strep. pneum. 2) | MIC (Bac. sub. 1) | MIC (Staph. aur. 5) | MIC (Strep. pyog. 203) | MIC (Staph. epi. 111) | MIC (Past. mult.) | antibacterial activity (in words) (bacteria) |
| --- | --- | --- | --- | --- | --- | --- | --- | --- | --- | --- |
| C[C@@H]1[C@@H](O[C@@H]2O[C@H](C)C[C@H](N(C)C)[C@H]2O)[C@@H](C)C[C@@]2(CO2)C(=O)[C@H](C)[C@@H](O)[C@@H](C)[C@@H](C)OC(=O)[C@H](C)[C@H]1O[C@H]1C[C@H](O)[C@@H](O)[C@H](C)O1 [I, O-demethyloleandomycin] | 6.25 µg/mL (≈ 9.28 µM) | 50 µg/mL (≈ 74.2 µM) | 12.5 µg/mL (≈ 18.6 µM) | 0.78 µg/mL (≈ 1.16 µM) | 6.25 µg/mL (≈ 9.28 µM) | 50 µg/mL (≈ 74.2 µM) | 1.56 µg/mL (≈ 2.32 µM) | 6.25 µg/mL (≈ 9.28 µM) | – | relatively low antibacterial activity |
